ChEMBL document CHEMBL1152149 (Bioorg Med Chem Lett, 2008)
Counter-ions that a name gives are not always drawn.

system: Influenza A virus; assay: microbe, parasite or virus in culture; details: MDCK

Point of comparison: `CC1(O)C2CC3CC(C2)CC1C3` (stereo unspecified), EC50 10.8 µM. Against it:
- C1CNC2(C1)C1CC3CC(C1)CC2C3 (stereo unspecified) — 6-fold lower, 1.8 µM
- NC12CC3CC(CC(C3)C1)C2 [AMANTADINE HYDROCHLORIDE] — lower, < 0.9 µM
- CCCC1(N)C2CC3CC(C2)CC1C3 (stereo unspecified) — lower, < 1.7 µM
- CCC1(N)C2CC3CC(C2)CC1C3 (stereo unspecified) — lower, < 1.9 µM
- CC1(N)C2CC3CC(C2)CC1C3 (stereo unspecified) — lower, < 2 µM
